Data reported in PubChem BioAssay AID2060605 (Molecular Pharmacology Branch, DTP, NCI, 2025).

System: 947758-054-R-J2-PDC spheroid growth, percent test/control
Test: Anticancer human tumor 947758-054-R-J2-PDC patient-derived colon adenocarcinoma cell line growth inhibition [CLK]
Settings: spheroids with HUVEC and MSC; for IC50: curve of first compound; for viability, T/C: stronger effect = lower value
Method in brief: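 Patient-derived tumor cells grown as complex spheroids with HUVEC endothelial cells and mesenchymal stem cells, treated with drug combinations. Concentrations descend in half-log steps from near clinical Cmax, or from 10 microM if Cmax unknown.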
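Note: spheroids exposed to compounds for one week before readout.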
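Throughout, for viability, T/C: 100% = DMSO vehicle control wells.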

Which IC50 (second compound 0.0316 µM) does the source give for `COc1ccc([C@@H](O)c2cc(-c3ncnc4cc(N5CCOCC5)ccc34)c(F)cc2Cl)nn1` + CNC(=O)c1ccc(Nc2nc(OC3CCCC3)c3c(-c4ccc5nc(C)oc5c4)c[nH]c3n2)c(OC)c1 here?
The IC50 was 1900 nM.

What about the IC50 (second compound 0.1 µM) of the same molecule?
Its IC50 is 899 nM.

And the IC50 (second compound 0.316 µM)?
The IC50 was 874 nM.

And the IC50 (second compound 1 µM)?
Its IC50 is 116 nM.

What about the IC50 (second compound 3.16 µM) of the same molecule?
The IC50 was < 31.6 nM.

What about the IC50 (second compound 10 µM) of the same molecule?
The IC50 was < 31.6 nM.

What about the viability, T/C (second compound 0.0316 µM, first compound 0.0316 µM) of the same molecule?
Its viability, T/C is 82.4%.

What about the viability, T/C (second compound 0.0316 µM, first compound 0.1 µM) of the same molecule?
Its viability, T/C is 63.7%.

What about the viability, T/C (second compound 0.0316 µM, first compound 0.316 µM) of the same molecule?
The viability, T/C was 74.7%.

And the viability, T/C (second compound 0.0316 µM, first compound 1 µM)?
The viability, T/C was 49.5%.

And the viability, T/C (second compound 0.0316 µM, first compound 3.16 µM)?
The viability, T/C was 48.6%.

What about the viability, T/C (second compound 0.0316 µM, first compound 10 µM) of the same molecule?
Its viability, T/C is 32.8%.

What about the viability, T/C (second compound 0.1 µM, first compound 0.0316 µM) of the same molecule?
Its viability, T/C is 91.8%.

What about the viability, T/C (second compound 0.1 µM, first compound 0.1 µM) of the same molecule?
The viability, T/C was 81.3%.

What about the viability, T/C (second compound 0.1 µM, first compound 0.316 µM) of the same molecule?
Its viability, T/C is 62.9%.

And the viability, T/C (second compound 0.1 µM, first compound 1 µM)?
The viability, T/C was 50.4%.

And the viability, T/C (second compound 0.1 µM, first compound 3.16 µM)?
Its viability, T/C is 33.8%.

And the viability, T/C (second compound 0.1 µM, first compound 10 µM)?
Its viability, T/C is 25.9%.

And the viability, T/C (second compound 0.316 µM, first compound 0.0316 µM)?
The viability, T/C was 80.1%.

And the viability, T/C (second compound 0.316 µM, first compound 0.1 µM)?
Its viability, T/C is 66.8%.

What about the viability, T/C (second compound 0.316 µM, first compound 0.316 µM) of the same molecule?
Its viability, T/C is 58.2%.

What about the viability, T/C (second compound 0.316 µM, first compound 1 µM) of the same molecule?
Its viability, T/C is 53.4%.

What about the viability, T/C (second compound 0.316 µM, first compound 3.16 µM) of the same molecule?
Its viability, T/C is 34.6%.

And the viability, T/C (second compound 0.316 µM, first compound 10 µM)?
The viability, T/C was 17.7%.

And the viability, T/C (second compound 1 µM, first compound 0.0316 µM)?
The viability, T/C was 59%.

And the viability, T/C (second compound 1 µM, first compound 0.1 µM)?
Its viability, T/C is 51.9%.

What about the viability, T/C (second compound 1 µM, first compound 0.316 µM) of the same molecule?
Its viability, T/C is 40%.

And the viability, T/C (second compound 1 µM, first compound 1 µM)?
Its viability, T/C is 31.6%.

What about the viability, T/C (second compound 1 µM, first compound 3.16 µM) of the same molecule?
Its viability, T/C is 24.2%.

And the viability, T/C (second compound 1 µM, first compound 10 µM)?
The viability, T/C was 6.15%.

What about the viability, T/C (second compound 3.16 µM, first compound 0.0316 µM) of the same molecule?
Its viability, T/C is 38%.

What about the viability, T/C (second compound 3.16 µM, first compound 0.1 µM) of the same molecule?
Its viability, T/C is 32.4%.

What about the viability, T/C (second compound 3.16 µM, first compound 0.316 µM) of the same molecule?
The viability, T/C was 37.6%.

And the viability, T/C (second compound 3.16 µM, first compound 1 µM)?
Its viability, T/C is 24.1%.

What about the viability, T/C (second compound 3.16 µM, first compound 3.16 µM) of the same molecule?
Its viability, T/C is 14.1%.

What about the viability, T/C (second compound 3.16 µM, first compound 10 µM) of the same molecule?
Its viability, T/C is 7.87%.

What about the viability, T/C (second compound 10 µM, first compound 0.0316 µM) of the same molecule?
The viability, T/C was 30.4%.

And the viability, T/C (second compound 10 µM, first compound 0.1 µM)?
The viability, T/C was 31.9%.

What about the viability, T/C (second compound 10 µM, first compound 0.316 µM) of the same molecule?
Its viability, T/C is 31%.

What about the viability, T/C (second compound 10 µM, first compound 1 µM) of the same molecule?
Its viability, T/C is 21.5%.

And the viability, T/C (second compound 10 µM, first compound 3.16 µM)?
Its viability, T/C is 8.56%.

And the viability, T/C (second compound 10 µM, first compound 10 µM)?
The viability, T/C was 5.76%.
